Measured values taken from PubChem BioAssay AID248 (DTP/NCI, 2004).
Toxic doses and inconclusive results are not listed. Cut-off read from the data, not from the text of the source: active = T/C of 150% or more; inactive = T/C below 125%.

Tested on: L1210 leukemia ip in BDF1 mice, survival T/C
Experiment: NCI In Vivo Anticancer Drug Screen. Data for tumor model L1210 Leukemia (intraperitoneal) in B6D2F1 (BDF1) mice
Settings: endpoint: mean survival time, higher = longer survival
Outline: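 Mice bearing the transplanted tumor received compound or vehicle. Survival of the treated group was divided by that of the vehicle-treated control group to give the ratio.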

[1] = dose: 50.0 mg/kg/injection, schedule: Q01DX001 (ip), vehicle: saline
[2] = dose: 100.0 mg/kg/injection, schedule: Q01DX001 (ip), vehicle: saline
[3] = dose: 200.0 mg/kg/injection, schedule: Q01DX001 (ip), vehicle: saline
[4] = dose: 400.0 mg/kg/injection, schedule: Q01DX001 (ip), vehicle: saline
[5] = dose: 100.0 mg/kg/injection, schedule: Q01DX009 (ip), vehicle: Klucel (hydroxypropylcellulose) (HPC)
[6] = dose: 100.0 mg/kg/injection, schedule: Q04DX003 (ip), vehicle: Klucel (hydroxypropylcellulose) (HPC)
[7] = dose: 200.0 mg/kg/injection, schedule: Q01DX009 (ip), vehicle: Klucel (hydroxypropylcellulose) (HPC)
[8] = dose: 200.0 mg/kg/injection, schedule: Q04DX003 (ip), vehicle: Klucel (hydroxypropylcellulose) (HPC)
[9] = dose: 400.0 mg/kg/injection, schedule: Q01DX009 (ip), vehicle: Klucel (hydroxypropylcellulose) (HPC)
[10] = dose: 400.0 mg/kg/injection, schedule: Q04DX003 (ip), vehicle: Klucel (hydroxypropylcellulose) (HPC)
[11] = dose: 100.0 mg/kg/injection, schedule: Q01DX009 (ip), vehicle: saline with Tween-80
[12] = dose: 100.0 mg/kg/injection, schedule: Q01DX001 (ip), vehicle: carboxymethylcellulose (CMC)
[13] = dose: 200.0 mg/kg/injection, schedule: Q01DX001 (ip), vehicle: carboxymethylcellulose (CMC)
[14] = dose: 400.0 mg/kg/injection, schedule: Q01DX001 (ip), vehicle: carboxymethylcellulose (CMC)
[15] = dose: 25.0 mg/kg/injection, schedule: Q01DX009 (ip), vehicle: Klucel (hydroxypropylcellulose) (HPC)
[16] = dose: 5.0 mg/kg/injection, schedule: Q01DX001 (ip), vehicle: saline
[17] = dose: 10.0 mg/kg/injection, schedule: Q01DX001 (ip), vehicle: saline
[18] = dose: 100.0 mg/kg/injection, schedule: Q04DX002 (ip), vehicle: Klucel (hydroxypropylcellulose) (HPC)
[19] = dose: 200.0 mg/kg/injection, schedule: Q04DX002 (ip), vehicle: Klucel (hydroxypropylcellulose) (HPC)
[20] = dose: 400.0 mg/kg/injection, schedule: Q04DX002 (ip), vehicle: Klucel (hydroxypropylcellulose) (HPC)
[21] = dose: 100.0 mg/kg/injection, schedule: Q01DX001 (ip), vehicle: saline with Tween-80
[22] = dose: 100.0 mg/kg/injection, schedule: Q04DX003 (ip), vehicle: saline
[23] = dose: 200.0 mg/kg/injection, schedule: Q04DX003 (ip), vehicle: saline
[24] = dose: 400.0 mg/kg/injection, schedule: Q04DX003 (ip), vehicle: saline

Measured: T/C

Cc1ccc(C)c2c1c1ccccc1n2N=O
inactive: [1] 97 % of control | [2] 100 % of control | [3] 100 % of control | [4] 114 % of control

COc1ccc(NC(=O)Nc2ccc(C)c(C)c2)cc1
inactive: [5] 92 % of control | [6] 97 % of control | [7] 91 % of control | [8] 103 % of control | [9] 91 % of control | [10] 95 % of control

O=C(CSC1=NCCN1)c1ccccc1
inactive: [11] 101 % of control

CCCCCCCN(CCCCCCC)CC(O)c1cc2ccc(Cl)cc2c2ncccc12 (stereo unspecified)
inactive: dose: 100.0 mg/kg/injection, schedule: Q01DX009 (sc), vehicle: olive oil, sesame oil, peanut oil 109 % of control | dose: 200.0 mg/kg/injection, schedule: Q01DX009 (sc), vehicle: olive oil, sesame oil, peanut oil 108 % of control | dose: 400.0 mg/kg/injection, schedule: Q01DX009 (sc), vehicle: olive oil, sesame oil, peanut oil 95 % of control

O=C1CCC=Cc2c(O)ccc(O)c21
inactive: [12] 91 % of control | [13] 93 % of control | [14] 96 % of control

CNC(=S)N/N=C(/C)CCc1c(C)nn(C(=S)NC)c1C
inactive: dose: 5.0 mg/kg/injection, schedule: Q01DX001 (ip), vehicle: carboxymethylcellulose (CMC) 94 % of control | dose: 10.0 mg/kg/injection, schedule: Q01DX001 (ip), vehicle: carboxymethylcellulose (CMC) 91 % of control | dose: 12.5 mg/kg/injection, schedule: Q01DX009 (ip), vehicle: Klucel (hydroxypropylcellulose) (HPC) 103 % of control | dose: 20.0 mg/kg/injection, schedule: Q01DX001 (ip), vehicle: carboxymethylcellulose (CMC) 89 % of control | [15] 100 % of control | dose: 25.0 mg/kg/injection, schedule: Q04DX003 (ip), vehicle: Klucel (hydroxypropylcellulose) (HPC) 106 % of control | dose: 40.0 mg/kg/injection, schedule: Q01DX001 (ip), vehicle: carboxymethylcellulose (CMC) 89 % of control | dose: 50.0 mg/kg/injection, schedule: Q01DX009 (ip), vehicle: Klucel (hydroxypropylcellulose) (HPC) 92 % of control | dose: 50.0 mg/kg/injection, schedule: Q04DX003 (ip), vehicle: Klucel (hydroxypropylcellulose) (HPC) 100 % of control | dose: 80.0 mg/kg/injection, schedule: Q01DX001 (ip), vehicle: carboxymethylcellulose (CMC) 96 % of control | [6] 92 % of control

Cn1cnc([N+](=O)[O-])c1S(=O)(=O)NCN1CCOCC1
inactive: [15] 117 % of control | [5] 113 % of control | [7] 113 % of control

COC(=O)c1ccc(C(F)(F)F)cc1O
inactive: [6] 97 % of control | [8] 100 % of control | [10] 108 % of control

O=C(O)CC1COc2ccccc2O1 (stereo unspecified)
inactive: [12] 91 % of control | [13] 105 % of control | [14] 94 % of control

CCOC(=O)c1oc2ccc(OC)c(C(C)=O)c2c1C
inactive: dose: 100.0 mg/kg/injection, schedule: Q04DX002 (ip), vehicle: saline with Tween-80 103 % of control | dose: 200.0 mg/kg/injection, schedule: Q04DX002 (ip), vehicle: saline with Tween-80 107 % of control | dose: 400.0 mg/kg/injection, schedule: Q04DX002 (ip), vehicle: saline with Tween-80 94 % of control

CC1CCC2N(C1)CC1C3(O)CC4(O)C(CCC5C(=O)C(O)CCC54C)C3(O)CC(O)C1(O)C2(C)O (stereo unspecified)
inactive: [16] 98 % of control | [17] 98 % of control | dose: 20.0 mg/kg/injection, schedule: Q01DX001 (ip), vehicle: saline 98 % of control

Cc1cc([N+](C)(C)C)cc(C)c1C#[N+][O-]
inactive: dose: 1.25 mg/kg/injection, schedule: Q01DX001 (ip), vehicle: saline 104 % of control | dose: 2.5 mg/kg/injection, schedule: Q01DX001 (ip), vehicle: saline 93 % of control | [16] 102 % of control | [17] 102 % of control

CC12CCC3C(C1)C(C(=O)O2)C(=O)OC3(C)C (stereo unspecified)
inactive: dose: 75.0 mg/kg/injection, schedule: Q01DX009 (ip), vehicle: Klucel (hydroxypropylcellulose) (HPC) 99 % of control | dose: 150.0 mg/kg/injection, schedule: Q01DX009 (ip), vehicle: Klucel (hydroxypropylcellulose) (HPC) 101 % of control

COc1ccc2c3c1OC1C(OC(C)=O)=CCC4C(C2)N(C)CCC314 (stereo unspecified)
inactive: [2] 93 % of control

CCOC(=O)C12CCC(C1=O)C(C)(O)CC2 (stereo unspecified)
inactive: dose: 100.0 mg/kg/injection, schedule: Q04DX003 (ip), vehicle: saline with Tween-80 108 % of control | dose: 200.0 mg/kg/injection, schedule: Q04DX003 (ip), vehicle: saline with Tween-80 97 % of control

O=S1(=O)CCCCC1Cl (stereo unspecified)
inactive: dose: 38.0 mg/kg/injection, schedule: Q01DX009 (ip), vehicle: other 96 % of control | dose: 75.0 mg/kg/injection, schedule: Q01DX001 (ip), vehicle: other 100 % of control | dose: 75.0 mg/kg/injection, schedule: Q01DX009 (ip), vehicle: other 89 % of control | dose: 75.0 mg/kg/injection, schedule: Q04DX003 (ip), vehicle: other 98 % of control | dose: 150.0 mg/kg/injection, schedule: Q01DX001 (ip), vehicle: other 100 % of control | dose: 150.0 mg/kg/injection, schedule: Q01DX009 (ip), vehicle: other 91 % of control | dose: 150.0 mg/kg/injection, schedule: Q04DX003 (ip), vehicle: other 98 % of control | dose: 300.0 mg/kg/injection, schedule: Q01DX001 (ip), vehicle: other 103 % of control

O=C(O)CSC(SCC(=O)O)(c1ccccc1)c1ccccc1
inactive: [18] 88 % of control | [19] 104 % of control | [20] 102 % of control

COc1ccc(C(O)CCN2CCCCC2)cc1 (stereo unspecified)
inactive: [21] 112 % of control

CN(C)C(=S)N(C)C
inactive: dose: 50.0 mg/kg/injection, schedule: Q01DX001 (ip), vehicle: carboxymethylcellulose (CMC) 104 % of control | [12] 104 % of control | dose: 100.0 mg/kg/injection, schedule: Q01DX009 (ip), vehicle: saline 90 % of control | [22] 107 % of control | [13] 101 % of control | dose: 200.0 mg/kg/injection, schedule: Q01DX009 (ip), vehicle: saline 96 % of control | [23] 107 % of control | [14] 98 % of control | dose: 400.0 mg/kg/injection, schedule: Q01DX009 (ip), vehicle: saline 98 % of control | [24] 104 % of control

O=C(Nc1ccccc1)OCC(Cl)(Cl)Cl
inactive: dose: 100.0 mg/kg/injection, schedule: Q01DX001 (ip), vehicle: saline sonified 105 % of control | [5] 100 % of control | [22] 91 % of control | dose: 200.0 mg/kg/injection, schedule: Q01DX001 (ip), vehicle: saline sonified 108 % of control | [7] 107 % of control | [23] 100 % of control | dose: 400.0 mg/kg/injection, schedule: Q01DX001 (ip), vehicle: saline sonified 103 % of control | [9] 100 % of control | [24] 96 % of control

O=CNC(Cc1ccc(OCc2ccccc2)cc1)C(=O)O (stereo unspecified)
inactive: dose: 50.0 mg/kg/injection, schedule: Q01DX009 (ip), vehicle: saline with Tween-80 98 % of control | [21] 89 % of control | [11] 96 % of control | dose: 200.0 mg/kg/injection, schedule: Q01DX001 (ip), vehicle: saline with Tween-80 95 % of control | dose: 200.0 mg/kg/injection, schedule: Q01DX009 (ip), vehicle: saline with Tween-80 98 % of control | dose: 400.0 mg/kg/injection, schedule: Q01DX001 (ip), vehicle: saline with Tween-80 88 % of control

CC(=O)CCc1ccc(Cl)cc1
inactive: [1] 101 % of control | [2] 107 % of control | [18] 105 % of control | [3] 107 % of control | [19] 105 % of control | [4] 106 % of control | [20] 105 % of control
